In patent US11015061B2, “Phthalocyanine-based compound and uses of same” (YAMAMOTO CHEMICALS, INC., priority 2017, dated 2021):

How the values were obtained:
Format in all cases: physicochemical
[1] = Absorption spectrum of toluene solution (maximum absorption, gram absorption coefficient); details: for gram absorption coefficient: at maximum absorption
Procedure: A toluene solution of the compound obtained in this way had maximum absorption at 734.0 nm, and the gram absorption coefficient thereof was 1.21×10^5 mL/g·cm. The absorption spectrum chart thereof is illustrated in FIG. 1.

[2] = Visible light transmittance of chloroform solution; details: spectrum converted to transmittance 10% at near-infrared maximum absorption wavelength
Procedure: The visible light transmittance of the phthalocyanine-based compound of the present invention and the comparative example compounds was measured by the following measurement method.
Each of the phthalocyanine compounds ([…]) and approximately 90 mL of chloroform were put into a 100 mL volumetric flask, and the solution in the flask was irradiated with ultrasonic waves for 30 minutes and left to stand for 2 hours at room temperature. Then, chloroform was added thereto such that the meniscus of the solution matched up with the calibration mark on the volumetric flask, thereby preparing a 10 mg/L phthalocyanine solution. The prepared solution was put into a 1 cm×1 cm cell made of PYREX (registered trademark), and the absorption spectrum thereof was measured using a spectrophotometer (produced by Hitachi, Ltd.: Spectrophotometer U-3500).
The absorption spectrum measured as above was converted such that the absorbance became 1.0, that is, the transmittance became 10% at the maximum absorption wavelength in a near-infrared range, thereby obtaining a transmission spectrum. […] At 460 nm, the transmittance of the compound of the present invention was approximately the same as the transmittance of Comparative Examples 1 and 2.

[3] = Tts (total solar transmittance) of heat ray shielding film; details: heat ray shielding film (5 g compound, 50 g acryl resin LP-45M, 2.5 μm on PET) on 3 mm glass plate; JIS R3106
Description: The phthalocyanine compound (Specific Example (1)-30) produced in Example 1 (5 g), 50 g of an acryl resin LP-45M (trade name, produced by Soken Chemical & Engineering Co., Ltd.), 20 g of methyl ethyl ketone, and 20 g of toluene were mixed and stirred together, thereby producing a resin composition.
As a transparent substrate, a polyethylene terephthalate film (PET film) having a thickness of 100 μm was bar-coated with the resin composition such that the thickness thereof became 2.5 μm, and then the applied resin composition was dried for 3 minutes at 100° C. Furthermore, the other surface of the PET film (surface not being coated with the resin composition) was bar-coated with a transparent acryl copolymer-based pressure sensitive adhesive such that the thickness thereof became 20 μm, and the applied pressure sensitive adhesive was dried and cured for 3 minutes at 100° C. Thereafter, a release film was bonded to the surface of the pressure sensitive adhesive, thereby producing a heat ray shielding film.
In the evaluation test, the release film was peeled from the produced heat ray shielding film, then the heat ray shielding film was compressed on a 5 cm×5 cm×3 mm (thickness) glass plate, and a test piece created in this way was used.
By using U-3500 type recording spectrophotometer produced by Hitachi, Ltd. as a measurement instrument, Tts of the laminated glass sample was measured based on JIS R3106 “Testing method for transmittance, reflectance, emissivity, and solar heat gain coefficient of flat glasses”.
Tts (Total solar energy transmitted through a glazing) represents a total solar transmittance.

[4] = Tts of laminated glass sample; details: 0.76 mm PVB interlayer with 0.013 g compound per 100 g resin, JIS R3106
Procedure: (§1) The phthalocyanine-based compound (Specific Example (1)-30) produced in Example 1 (0.013 g) was dissolved in 40 g of triethylene glycol-di-2-ethylhexanoate as an organic ester plasticizer. The obtained solution was added to 100 g of a polyvinyl butyral resin (trade name: BH-3, produced by SEKISUI CHEMICAL CO., LTD.), thoroughly melted and kneaded using a mixing roll, and extruded using an extruder, thereby obtaining an interlayer having a thickness of 0.76 mm.
(§2) The interlayer was cut in size of 100 mm×100 mm, interposed between heat ray absorbing glass plates (100 mm (length)×100 mm (width)×2.0 mm (thickness)) prepared based on JIS R3208, put into a rubber bag, and deaerated for 20 minutes at a degree of vacuum of 2.6 kPa. Then, the deaerated laminate was moved into an oven and further hold for 30 minutes at 90° C. to vacuum press. Thereafter, the laminate was compressed for 20 minutes in an autoclave under the condition of a temperature of 130° C. and a pressure of 1.3 MPa, thereby obtaining a laminated glass sample.
By using U-3500 type recording spectrophotometer produced by Hitachi, Ltd. as a measurement instrument, Tts of the laminated glass samples was measured based on JIS R3106 “Testing method for transmittance, reflectance, emissivity, and solar heat gain coefficient of flat glasses”.

[5] = Visible light transmittance of laminated glass sample; details: 380 to 780 nm, JIS R3212
Procedure: as §1, §2
By using U-3500 type recording spectrophotometer produced by Hitachi, Ltd. as a measurement instrument, the visible light transmittance of the laminated glass samples at a wavelength of 380 to 780 nm was measured based on JIS R3212 “Test methods of safety glazing materials for road vehicles”.

[6] = Light fastness test of laminated glass; details: xenon light 200 hours at 550 W/h, absorbance integrated 400 to 900 nm
Procedure: as §1, §2
For a light fastness test, the absorption spectrum of the laminated glass was measured using a spectrophotometer (produced by Hitachi, Ltd.: Spectrophotometer U-3500) and adopted as a spectrum before light fastness test. Then, the laminated glass used for measuring the spectrum before test was irradiated with light for 200 hours at 550 W/h by using a xenon light fastness tester (produced by Toyo Seiki Seisaku-sho, Ltd.: SUNTEST XLS+). The absorption spectrum of the laminated glass irradiated with light was measured using the spectrophotometer and adopted as a spectrum after light fastness test.
(§3) In each of the spectra measured as above before and after the light fastness⋅heat resistance test, the values of absorbance within a range of 400 to 900 nm were integrated, and a difference between the integrated value before the light fastness⋅heat resistance test and the integrated value after the light fastness⋅heat resistance test was calculated.
(§4) The difference ΔE between the absorbance before the light fastness⋅heat resistance test and the absorbance after the light fastness⋅heat resistance test is expressed by the following equation. ΔE (%)={E(400 to 900 nm in E1)−E(400 to 900 nm in E2)}/E(400 to 900 nm in E1)×100
(§5) E1 represents the spectrum before test, E2 represents the spectrum after test, and Σ represents integration of values of absorbance. The larger the value of ΔE, the greater the spectrum change between before and after the light fastness⋅heat resistance test.

[7] = Heat resistance test of laminated glass; details: 200 hours at 100° C., absorbance integrated 400 to 900 nm
Procedure: as §1, §2
For a heat resistance test, the laminated glass used for measuring the spectrum before test as described above was treated with heat for 200 hours at a temperature of 100° C. in a thermostat (produced by Yamato Scientific co., ltd.: IG400). By using the spectrophotometer, the absorption spectrum of the heat-treated laminated glass was measured and adopted as a spectrum after heat resistance test.
as §3, §4, §5

maximum absorption [1] [nm] | gram absorption coefficient [1] [mL/g/cm] | Transmittance (%) 460 nm [2] [%] | Transmittance (%) 610 nm [2] [%] | Tts [3] [%] | Tts [4] [%] | Visible light transmittance [5] [%] | ΔE (%) Light fastness [6] [%] | ΔE (%) Heat resistance [7] [%] | SMILES
734.5 | 71000 | 97.9 | 88.5 | 86 | 52.3 | 77.7 | 2 | 3 | CC(C)(C)c1ccc(OCCCCc2ccc(CCCCOc3ccc(C(C)(C)C)cc3)c3c2-c2nc-3nc3[n-]c(nc4nc(nc5[n-]c(n2)c2c(CCCCOc6ccc(C(C)(C)C)cc6)ccc(CCCCOc6ccc(C(C)(C)C)cc6)c52)-c2c(CCCCOc5ccc(C(C)(C)C)cc5)ccc(CCCCOc5ccc(C(C)(C)C)cc5)c2-4)c2c(CCCCOc4ccc(C(C)(C)C)cc4)ccc(CCCCOc4ccc(C(C)(C)C)cc4)c32)cc1.[O]=[V+2] [Specific Example (1)-42]
735.5 | 78900 | 97.6 | 88.0 | 85.7 | 52 | 77.6 | 3 | 4 | Fc1ccccc1OCCCCc1ccc(CCCCOc2ccccc2F)c2c1-c1nc-2nc2[n-]c(nc3nc(nc4[n-]c(n1)c1c(CCCCOc5ccccc5F)ccc(CCCCOc5ccccc5F)c41)-c1c(CCCCOc4ccccc4F)ccc(CCCCOc4ccccc4F)c1-3)c1c(CCCCOc3ccccc3F)ccc(CCCCOc3ccccc3F)c21.[O]=[V+2] [Specific Example (1)-43]
734.5 | 67500 | 98.3 | 89.0 | 85.6 | 52.9 | 77.9 | 3 | 3 | COc1cccc(OC)c1OCCCCc1ccc(CCCCOc2c(OC)cccc2OC)c2c1-c1nc-2nc2[n-]c(nc3nc(nc4[n-]c(n1)c1c(CCCCOc5c(OC)cccc5OC)ccc(CCCCOc5c(OC)cccc5OC)c41)-c1c(CCCCOc4c(OC)cccc4OC)ccc(CCCCOc4c(OC)cccc4OC)c1-3)c1c(CCCCOc3c(OC)cccc3OC)ccc(CCCCOc3c(OC)cccc3OC)c21.[O]=[V+2] [Specific Example (1)-44]
706.5 | 60100 | 99.9 | 89.5 | 85.5 | 52.5 | 77.4 | 3 | 4 | COc1cccc(OC)c1OCCCCc1ccc(CCCCOc2c(OC)cccc2OC)c2c1-c1nc-2nc2[n-]c(nc3nc(nc4[n-]c(n1)c1c(CCCCOc5c(OC)cccc5OC)ccc(CCCCOc5c(OC)cccc5OC)c41)-c1c(CCCCOc4c(OC)cccc4OC)ccc(CCCCOc4c(OC)cccc4OC)c1-3)c1c(CCCCOc3c(OC)cccc3OC)ccc(CCCCOc3c(OC)cccc3OC)c21.[Cu+2] [Specific Example (1)-45]
